{"source": "patent US20220064238A1", "about": "“Methods And Compositions For Modifying Transcription Factor Activity by Targeting The Human Mediator Complex Using Cell Penetrating Memetic Peptides And Methods of Treating Cancer Using The Same” (The Regents of the University of Colorado, a body corporate, priority 2020, published 2022)", "key": {"[1]": {"tested_on": "Gal4-VP16 / Mediator", "test": "In vitro transcription on chromatin templates activated by Gal4-VP16", "type": "biochemical, human", "details": "read-out: IC50, transcription in the presence of Gal4-VP16", "excerpt": "Finally, we assessed whether the bivalent peptide would selectively block p53-dependent transcription compared with VP16, a viral activation domain. Whereas p53 and VP16 both interact with Mediator, they do so through different subunits (MED17 and MED25, respectively).\nIn vitro transcription: Chromatinized templates and in vitro transcription assays were generated and completed as described (Knuesel et al., 2009). Briefly, each activator (GAL4-p53AD or GAL4-VP16AD) was titrated to yield maximum transcription. While the activator bound the template, the general transcription factors (GTFs) were mixed in 0.1 M HEMG (10 mM HEPES pH 7.6, 100 mM KCl, 0.1 mM EDTA, 10% glycerol, 5.5 mM MgCl2) to give approximate final concentrations of 40 nM TFIIA, 10 nM IIB, 0.8 nM TFIID, 10 nM TFIIE, 10 nM TFIIF, 0.5 nM TFIIH and 2 nM pol II. A non-limiting amount of Mediator was then diluted in a separate salts mix (10 mM HEPES pH 7.6, 100 mM KCl, 2.5% PVA, 2.5% PEG, 7.5 mM MgCl2), along with 400 U of RNAseOUT, about 300 ng PC4 and about 300 ng HMGB1. On ice, the desired concentration of peptide was then added to the Mediator mix, followed by the GTF mix at a 5:11 ratio. The GTFs, Mediator and peptide were then incubated at least 5 minutes at 30° C. […]"}, "[2]": {"tested_on": "p53-target genes in HCT116 cells", "test": "RT-qPCR of p53 target genes in HCT116 cells", "type": "cell-based, human", "details": "HCT116, 3-hour Nutlin treatment", "description": "Experimental time frame for RNA-Seq experiments: In a series of experiments in SJSA cells, we initially tested whether the bivalent peptide could cause a phenotypic change. […] We next determined that a 6-hour Nutlin treatment time was the shortest that would still trigger significant SJSA cell death within 24-48 hours. However, we obtained similar results with 6-hour (or 12-hour) Nutlin treatment times (±bivalent peptide). We then tested the prospect of RNA-Seq experiments, in hopes that gene expression changes and shorter time frames would allow an assessment of bivalent peptide effects. Here, we used HCT116 cells, which show strong transcriptional response to Nutlin (Allen et al., 2014). For RNA-Seq experiments, we needed a time frame long enough to allow accumulation of p53 target gene mRNAs but short enough to enable maximum activity of the bivalent peptide (e.g. prior to its secretion, export, and/or degradation). Using RT-qPCR assays, we confirmed that a 3-hour Nutlin treatment was a minimum amount of time to reliably detect induction of p53 target genes. […] RNA-Seq data have been uploaded on GEO: GSE135870."}}, "note": "Bridge positions count the residues as written; N and C are the ends. Square brackets hold non-standard residues; d marks the D form. Peptide text beside a SMILES is read from it. PEG6 = NCCOCCOCCOCCOCCOCCOCCC(=O)O; R8 = C=CCCCCCC[C@@](C)(N)C(=O)O; S5 = C=CCCC[C@](C)(N)C(=O)O"}
{"smiles": "CC[C@H](C)[C@H](NC(=O)[C@H](CC(=O)O)NC(=O)[C@H](CC(=O)O)NC(=O)[C@@H]1CCCN1C(=O)[C@H](CO)NC(=O)[C@H](CC(C)C)NC(=O)CCOCCOCCOCCOCCOCCOCCNC(=O)[C@H](CCCNC(=N)N)NC(=O)[C@H](CCCNC(=N)N)NC(=O)[C@]1(C)CCCC=CCCCCCC[C@@](C)(NC(=O)[C@H](Cc2ccccc2)NC(=O)[C@H](CCCNC(=N)N)NC(=O)[C@H](CCC(=O)O)NC(=O)[C@H](CCC(N)=O)NC(=O)[C@H](CO)NC(=O)[C@H](CCCNC(=N)N)NC(C)=O)C(=O)N[C@@H](CC(=O)O)C(=O)N[C@@H](CC(C)C)C(=O)N[C@@H](Cc2c[nH]c3ccccc23)C(=O)N[C@@H](CCCCN)C(=O)N[C@@H](CCCNC(=N)N)C(=O)N[C@@H](CC(C)C)C(=O)N1)C(=O)N[C@@H](CCC(=O)O)C(=O)N[C@@H](CCC(N)=O)C(=O)N[C@@H](Cc1c[nH]c2ccccc12)C(=O)N[C@@H](Cc1ccccc1)C(=O)N[C@H](C(=O)N[C@@H](CCC(=O)O)C(=O)N[C@@H](CC(=O)O)C(N)=O)[C@@H](C)O", "note": "[bivalent peptide] (Ac-RSQERF[R8]DLWKRL[S5]RR[PEG6]LSPDDIEQWFTED-NH2; staple 7-14; N-terminus assumed)", "values": [{"measurement": "IC50", "setting": "[1]", "value": 424, "unit": "nM"}, {"measurement": "activation of p53-target genes by RT-qPCR", "setting": "[2]", "value": "blocking activation of p53-target genes"}]}
